Calls of active or inactive are those of the source.
Columns and labels:
[1] = A Cell Based Secondary Assay To Explore Cytotoxicity of Compounds that Sensitize Mycobacterium Tuberculosis to Beta-Lactam Antibiotics.; format: functional
[2] = biological target: Voltage-gated inwardly rectifying potassium channel KCNH2 (Homo sapiens, UniProt Q12809); assay: hERG protection from proarrhythmic block, potency, dose response, cell-based, thallium flux (AID 2121); format: ADME
[3] = Vero cell cytotoxicity, dose response, cytotoxicity control for Vif-APOBEC3G degradation inhibitor project, Vero cells (AID 1117358); format: functional; settings: Human immunodeficiency virus 1, Vero
[4] = inhibitors of intracellular T. cruzi replication, confirmation, NIH3T3 host cells, beta-gal luminescence (AID 2044); format: functional, cell-based;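 also: intracellular parasites grown in NIH/3T3 mouse fibroblasts as host cells; luminescent beta-galactosidase reporter signal from transgenic T. cruzi replicating inside host cells; inhibitors lower the luminescence signal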
[5] = cytotoxicity toward NIH3T3 fibroblasts, dose response, counter-screen, cell-based, ATP luminescence, mouse fibroblasts (AID 2010); format: functional;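 also: cells exposed to compound for about 90 hours before reading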
[6] = HepG2 cell cytotoxicity, dose response, cytotoxicity control, cherry-picked samples (AID 1159577); format: functional, cell-based
[7] = P. falciparum Dd2 growth inhibitors, dose response, SYBR Green, cherry-picked samples (AID 1159567); format: functional, cell-based
[8] = M. tuberculosis H37Rv growth inhibitors, H37Rv strain (AID 1626); format: functional
Cytochrome P450 2C9 = Cytochrome P450 2C9 (Homo sapiens, UniProt P11712)
[9] = cytotoxicity in HPDE-C7 cells, cell-based, fluorescence, HTS (AID 430); format: functional; settings: Homo sapiens
[10] = cytotoxicity in KRAS-transformed pancreatic duct cells, primary screen, cell-based, fluorescence, HTS (AID 431); format: functional; settings: Homo sapiens;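 also: cell line used: HPDE-C7K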
Protein RecA = biological target: T1, Protein RecA (Mycobacterium tuberculosis, UniProt P9WHJ3); assay: Fluorescence Cell-Free Homogeneous Dose Retest to Identify Inhibitors of RecA-Intein Splicing Activity. [Related pubchem assays (depositor defined):AID2097, AID2223, AID489010, AID492950]; format: functional
T1 sequence (P9WHJ3 whole entry): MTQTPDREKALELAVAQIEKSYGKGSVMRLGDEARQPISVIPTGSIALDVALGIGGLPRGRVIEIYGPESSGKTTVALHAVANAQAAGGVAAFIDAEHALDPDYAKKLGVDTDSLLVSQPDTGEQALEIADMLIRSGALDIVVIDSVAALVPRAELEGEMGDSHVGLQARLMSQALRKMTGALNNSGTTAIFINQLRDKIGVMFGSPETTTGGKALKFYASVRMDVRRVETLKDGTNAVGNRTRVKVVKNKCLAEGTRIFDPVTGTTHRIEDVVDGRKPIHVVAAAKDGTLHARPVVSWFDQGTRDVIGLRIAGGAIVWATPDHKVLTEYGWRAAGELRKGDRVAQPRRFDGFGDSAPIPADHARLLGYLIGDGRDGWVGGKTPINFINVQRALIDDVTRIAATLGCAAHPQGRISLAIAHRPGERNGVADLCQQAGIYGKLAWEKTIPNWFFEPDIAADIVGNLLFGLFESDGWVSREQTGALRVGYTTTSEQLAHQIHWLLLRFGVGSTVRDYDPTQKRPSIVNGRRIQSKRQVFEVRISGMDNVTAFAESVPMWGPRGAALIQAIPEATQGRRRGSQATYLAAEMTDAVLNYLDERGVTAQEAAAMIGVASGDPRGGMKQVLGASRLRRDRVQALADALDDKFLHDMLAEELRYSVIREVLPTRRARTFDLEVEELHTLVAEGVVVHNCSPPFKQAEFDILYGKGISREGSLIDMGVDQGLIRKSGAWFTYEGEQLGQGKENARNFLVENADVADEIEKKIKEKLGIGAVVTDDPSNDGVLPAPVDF

[11] = biological target: T2, Replicative DNA helicase DnaB (Mycobacterium tuberculosis, UniProt P9WMR3); assay: DnaB intein splicing inhibitors, dose response, biochemical, cell-free fluorescence (AID 449749); format: functional
T2 sequence (P9WMR3 whole entry): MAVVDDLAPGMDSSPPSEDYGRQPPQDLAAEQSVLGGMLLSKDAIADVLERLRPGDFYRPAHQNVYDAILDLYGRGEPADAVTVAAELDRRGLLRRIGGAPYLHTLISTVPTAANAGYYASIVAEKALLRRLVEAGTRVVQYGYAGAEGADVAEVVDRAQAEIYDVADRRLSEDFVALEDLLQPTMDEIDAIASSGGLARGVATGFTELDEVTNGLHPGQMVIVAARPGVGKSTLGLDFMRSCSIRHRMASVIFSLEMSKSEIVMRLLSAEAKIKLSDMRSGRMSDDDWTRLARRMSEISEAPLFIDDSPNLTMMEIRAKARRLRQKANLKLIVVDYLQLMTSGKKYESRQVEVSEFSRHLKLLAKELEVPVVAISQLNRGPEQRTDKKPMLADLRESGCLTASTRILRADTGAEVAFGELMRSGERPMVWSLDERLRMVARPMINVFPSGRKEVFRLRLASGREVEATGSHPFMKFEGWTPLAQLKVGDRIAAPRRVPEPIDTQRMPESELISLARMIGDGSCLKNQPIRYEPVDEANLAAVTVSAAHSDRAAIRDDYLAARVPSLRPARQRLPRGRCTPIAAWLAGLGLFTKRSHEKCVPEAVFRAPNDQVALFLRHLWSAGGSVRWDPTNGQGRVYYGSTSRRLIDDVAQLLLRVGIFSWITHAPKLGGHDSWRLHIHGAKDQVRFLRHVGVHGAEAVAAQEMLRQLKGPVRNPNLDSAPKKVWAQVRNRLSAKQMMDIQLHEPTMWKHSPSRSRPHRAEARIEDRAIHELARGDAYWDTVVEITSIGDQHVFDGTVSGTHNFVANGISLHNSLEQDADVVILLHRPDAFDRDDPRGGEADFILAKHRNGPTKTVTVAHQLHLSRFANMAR

[12] = Luminescence-based cell-based high throughput dose response assay to identify activators of the DAF-12 from the parasite S. stercoralis (ssDAF-12).; format: functional
[13] = biological target: T3, Oxysterols receptor LXR-beta (Homo sapiens, UniProt P55055); assay: LXR agonists, Gal4 luciferase reporter, dose response, counter-screen for ssDAF-12 agonist project, cell-based, luminescence, HEK293, S. stercoralis campaign (AID 720737); format: functional; settings: read-out: IC50 (the source's name)
T3 sequence (P55055 whole entry): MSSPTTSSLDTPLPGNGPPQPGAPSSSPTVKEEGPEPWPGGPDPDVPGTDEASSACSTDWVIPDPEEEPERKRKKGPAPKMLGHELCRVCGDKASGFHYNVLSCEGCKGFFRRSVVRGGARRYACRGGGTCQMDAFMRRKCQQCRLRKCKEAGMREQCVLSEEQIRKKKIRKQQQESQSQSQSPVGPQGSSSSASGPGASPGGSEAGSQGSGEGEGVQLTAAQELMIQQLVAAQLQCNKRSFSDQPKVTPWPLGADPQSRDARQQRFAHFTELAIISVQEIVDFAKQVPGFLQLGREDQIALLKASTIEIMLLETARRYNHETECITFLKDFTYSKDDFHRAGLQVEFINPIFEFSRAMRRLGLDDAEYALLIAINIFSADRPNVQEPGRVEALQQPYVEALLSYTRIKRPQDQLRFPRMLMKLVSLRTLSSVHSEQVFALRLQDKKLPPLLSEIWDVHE

[14] = biological target: FAD-linked sulfhydryl oxidase ALR (Homo sapiens, UniProt P55789); assay: inhibitors of human ALR sulfhydryl oxidase, dose response, biochemical, H2O2 detection, luminescence, cherry-pick (AID 493248)
[15] = C. albicans growth with fluconazole, confirmation, fluorescence, retest (AID 2467); format: functional, cell-based
[16] = tested on: Streptococcus sp. 'group A'; assay: growth inhibition of control SK(-) GAS strain, dose response, counter-screen for streptokinase expression inhibitor project, luminescence, kanamycin, BacTiterGlo, confirmation (AID 1900); format: functional, organism-based
Streptococcus = assay: Group A Streptococcus viability loss, dose response, counter-screen for streptokinase expression inhibitor project, luminescence, BacTiterGlo (AID 1915); format: functional, organism-based;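 also: potency for reduction of bacterial viability or growth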
[17] = NIH-3T3 fibroblast cytotoxicity, dose response, cytotoxicity control, cell-based, fluorescence, Alamar Blue, secondary assay (AID 2327); format: functional;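 also: NIH-3T3 mouse fibroblasts cultured with fluconazole at 8 µg/mL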
Caspase-6 = biological target: T4, Caspase-6 (Homo sapiens, UniProt P55212); assay: human caspase-6 inhibitors, dose response, biochemical, VEID-R110 fluorescence, cherry-pick (AID 720632)
T4 sequence (P55212 whole entry): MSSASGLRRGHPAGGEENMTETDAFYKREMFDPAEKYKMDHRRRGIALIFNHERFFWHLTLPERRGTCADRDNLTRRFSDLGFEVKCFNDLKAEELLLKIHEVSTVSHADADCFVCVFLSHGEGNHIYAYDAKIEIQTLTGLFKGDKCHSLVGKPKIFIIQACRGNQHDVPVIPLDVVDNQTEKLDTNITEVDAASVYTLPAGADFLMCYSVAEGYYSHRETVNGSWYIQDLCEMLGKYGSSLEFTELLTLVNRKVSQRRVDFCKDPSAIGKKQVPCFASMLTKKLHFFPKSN

[18] = biological target: T5, Rac GTPase-activating protein 1 (Homo sapiens, UniProt Q9H0H5); assay: MgcRacGAP GTPase-activating activity inhibitors, confirmation, biochemical, ADP Hunter fluorescence, primary and confirmatory (AID 624330); format: functional
T5 sequence (Q9H0H5 whole entry): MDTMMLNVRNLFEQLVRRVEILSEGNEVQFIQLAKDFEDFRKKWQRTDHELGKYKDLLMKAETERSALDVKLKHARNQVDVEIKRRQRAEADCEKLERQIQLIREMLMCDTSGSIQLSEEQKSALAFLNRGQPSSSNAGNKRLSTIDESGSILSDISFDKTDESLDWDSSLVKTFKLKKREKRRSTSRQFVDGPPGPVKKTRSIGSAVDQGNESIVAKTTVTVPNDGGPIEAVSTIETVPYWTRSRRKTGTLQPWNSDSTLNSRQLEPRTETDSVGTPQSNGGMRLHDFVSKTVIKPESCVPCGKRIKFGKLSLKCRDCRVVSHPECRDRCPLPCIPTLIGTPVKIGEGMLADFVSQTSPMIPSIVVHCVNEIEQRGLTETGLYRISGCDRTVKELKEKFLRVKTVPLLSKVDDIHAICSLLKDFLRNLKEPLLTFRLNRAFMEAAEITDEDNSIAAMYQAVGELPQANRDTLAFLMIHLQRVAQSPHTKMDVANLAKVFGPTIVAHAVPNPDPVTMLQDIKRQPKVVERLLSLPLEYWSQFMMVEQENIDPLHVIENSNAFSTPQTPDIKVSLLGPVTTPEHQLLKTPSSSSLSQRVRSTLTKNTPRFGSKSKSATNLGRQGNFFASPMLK

Voltage-gated inwardly rectifying potassium channel KCNH2, sequence (Q12809 whole entry): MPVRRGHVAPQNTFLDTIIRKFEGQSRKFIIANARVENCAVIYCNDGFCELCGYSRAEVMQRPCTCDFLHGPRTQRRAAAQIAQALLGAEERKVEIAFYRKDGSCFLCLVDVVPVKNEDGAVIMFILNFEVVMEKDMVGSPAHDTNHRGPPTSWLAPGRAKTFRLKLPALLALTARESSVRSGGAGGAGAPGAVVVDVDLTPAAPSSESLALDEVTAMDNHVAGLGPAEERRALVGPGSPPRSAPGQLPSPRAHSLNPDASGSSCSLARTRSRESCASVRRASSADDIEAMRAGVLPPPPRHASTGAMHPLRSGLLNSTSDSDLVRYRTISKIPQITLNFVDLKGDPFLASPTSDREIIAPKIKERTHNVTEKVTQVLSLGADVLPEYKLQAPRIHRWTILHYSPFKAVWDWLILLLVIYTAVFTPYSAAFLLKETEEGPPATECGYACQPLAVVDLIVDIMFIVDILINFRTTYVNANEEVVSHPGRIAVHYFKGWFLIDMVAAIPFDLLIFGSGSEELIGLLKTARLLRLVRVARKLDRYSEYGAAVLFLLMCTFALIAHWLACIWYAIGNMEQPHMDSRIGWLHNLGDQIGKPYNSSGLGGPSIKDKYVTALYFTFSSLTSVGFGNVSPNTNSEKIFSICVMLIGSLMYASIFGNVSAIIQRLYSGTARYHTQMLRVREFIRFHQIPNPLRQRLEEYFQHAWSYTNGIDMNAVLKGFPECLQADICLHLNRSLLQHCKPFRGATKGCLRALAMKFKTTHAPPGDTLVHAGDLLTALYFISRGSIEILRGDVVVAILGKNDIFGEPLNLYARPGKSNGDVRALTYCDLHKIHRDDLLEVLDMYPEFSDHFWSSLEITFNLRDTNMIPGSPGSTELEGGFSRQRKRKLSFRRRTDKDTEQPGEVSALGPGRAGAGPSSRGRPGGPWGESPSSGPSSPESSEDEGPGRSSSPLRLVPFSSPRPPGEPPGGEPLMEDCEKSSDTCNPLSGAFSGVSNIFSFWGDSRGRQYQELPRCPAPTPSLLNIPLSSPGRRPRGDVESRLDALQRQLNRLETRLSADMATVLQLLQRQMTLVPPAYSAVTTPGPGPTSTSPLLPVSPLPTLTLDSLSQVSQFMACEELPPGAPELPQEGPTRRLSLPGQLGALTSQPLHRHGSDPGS
FAD-linked sulfhydryl oxidase ALR, sequence (P55789 whole entry): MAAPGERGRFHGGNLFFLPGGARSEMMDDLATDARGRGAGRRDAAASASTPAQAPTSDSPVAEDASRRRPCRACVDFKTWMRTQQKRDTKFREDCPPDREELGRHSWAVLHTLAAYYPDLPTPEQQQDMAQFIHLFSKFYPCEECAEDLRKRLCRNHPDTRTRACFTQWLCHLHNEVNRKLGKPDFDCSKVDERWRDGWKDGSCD
Cytochrome P450 2C9, sequence (P11712 whole entry): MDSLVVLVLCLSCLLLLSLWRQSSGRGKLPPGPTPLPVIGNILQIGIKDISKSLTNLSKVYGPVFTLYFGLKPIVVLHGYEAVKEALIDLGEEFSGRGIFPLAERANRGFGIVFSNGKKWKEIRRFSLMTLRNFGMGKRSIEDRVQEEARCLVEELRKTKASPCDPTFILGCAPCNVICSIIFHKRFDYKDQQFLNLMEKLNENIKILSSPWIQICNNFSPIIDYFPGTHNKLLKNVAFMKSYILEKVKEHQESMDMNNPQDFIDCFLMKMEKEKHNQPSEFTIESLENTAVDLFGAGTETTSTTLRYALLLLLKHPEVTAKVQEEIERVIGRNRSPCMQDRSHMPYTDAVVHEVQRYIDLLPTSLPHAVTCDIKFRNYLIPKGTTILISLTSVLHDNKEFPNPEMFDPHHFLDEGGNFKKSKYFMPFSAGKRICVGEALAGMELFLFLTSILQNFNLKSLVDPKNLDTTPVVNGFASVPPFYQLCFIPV

With `Cc1nn(C)c(C)c1NC(=O)CCCSc1nc(-c2ccco2)cc(C(F)(F)F)n1` the CC50 [1] was > 40 µM (active).
In the case of `O=C(CCS(=O)(=O)c1ccc(F)cc1)Nc1nnc(-c2cccs2)o1`, the CC50 [1] is reported as 24.3 µM (active).
With `C=C(C)CN=C(S)NN=C1c2ccccc2-c2ccccc21` the EC50 [2] was 0.95 µM (active).
For `Cc1ccc(NC(S)=NNc2ncc(C(F)(F)F)cc2Cl)cc1`, the CC50 [3] was > 40 µM (active).
For `Cc1ccc2nc(N(CCCN(C)C)C(=O)c3ccc(S(=O)(=O)N4CCOCC4)cc3)sc2c1`, the EC50 [4] was < 0.1 µM (active), the EC50 [5] was 10.8 µM (active) and the EC50 (cells) was 0.007 µM (active).
In the case of `COc1cc(-c2nnc(O)o2)cc(OC)c1OC`, the CC50 [3] is reported as > 40 µM (active).
With `Cc1ccc(-c2ccc([C@@H]3[C@H](CO)N4CCCCN(S(=O)(=O)c5ccccc5C)C[C@@H]34)cc2)cc1` the AC50 [6] was 11 µM (active) and the AC50 [7] was 0.589 µM (active).
For `Cc1nc(SCc2ccccc2F)c2oc3ccccc3c2n1`, the IC50 [8] was > 100 µM (active).
With `O=C(CCC1CCCN(Cc2cccc(Cl)c2)C1)NCc1ccccc1F` (stereo unspecified) the EC50 [4] was < 0.1 µM (active), the EC50 [5] was > 30 µM (not active) and the EC50 (cells) was 0.045 µM (active).
For `CS(=O)(=O)N(Cc1cc2ccccc2nc1O)C1CCCCC1`, the AC50 (Cytochrome P450 2C9) was 39.8 µM (inconclusive), the EC50 [9] was > 20 µM (not active) and the EC50 [10] was > 20 µM (not active).
In the case of `CCOc1ccc(N2C(=O)/C(=C\c3ccc(OC)c(O)c3)S(=O)(=O)C2c2cccc([N+](=O)[O-])c2)cc1` (stereo unspecified), the EC50 (Protein RecA) is reported as 6.38 µM (active), the AC50 [11] is reported as 10.2 µM (active) and the IC50 [8] is reported as > 100 µM (active).
With `CC1=NN(C(=O)CCc2ccc3c(c2)OCO3)C(O)(C(F)(F)F)C1` (stereo unspecified) the IC50 [12] was > 67.5 µM (inactive) and the EC50 [13] was > 67.5 µM (inactive).
In the case of `CCC(=O)N1[C@H](CO)[C@H](c2ccc(C3=CCCC3)cc2)[C@H]1CNC1CCCC1`, the AC50 [6] is reported as > 42 µM (inactive) and the AC50 [7] is reported as 5.63 µM (active).
With `c1ccc(Cc2c(-c3ccco3)nc3c4ccccc4ccn23)cc1` the IC50 [12] was > 67.5 µM (inactive) and the EC50 [13] was > 67.5 µM (inactive).
For `Cc1ccc(/C=N/Nc2ccc(C(=O)O)cc2)o1`, the EC50 [2] was 11 µM (active) and the AC50 [14] was 2.79 µM (active).
With `CCOc1ccc(NC(=O)CSc2ccccc2N)cc1` the IC50 [8] was > 100 µM (active).
In the case of `Cc1cc(C)c(N/C=C2/C(=O)N(c3nccs3)C(=O)c3ccccc32)c(C)c1`, the CC50 [1] is reported as > 40 µM (active).
With `CC(C)(C)c1ccc(C(=O)CC(=O)c2cc(Cl)ccc2O)cc1` the EC50 [2] was 6.61 µM (active), the EC50 [15] was 1.9 µM (active) and the EC50 [16] was 0.192 µM (active). For the same compound, the EC50 (Streptococcus) was 2.68 µM (active) and the EC50 [17] was 136 µM (active).
In the case of `CC(=O)N1CCN(c2ccc(N)cc2)CC1`, the AC50 (Caspase-6) is reported as 11.1 µM (active), the AC50 [14] is reported as 1.06 µM (active) and the IC50 [18] is reported as 16.2 µM (active).
In the case of `c1ccc(-c2cc(-c3nnc4n3N=C(c3ccc5ccccc5c3)CS4)n[nH]2)cc1`, the CC50 [3] is reported as > 40 µM (active), the EC50 [4] is reported as 1.63 µM (active) and the EC50 [5] is reported as 7.45 µM (active).

Reference: ChEMBL document CHEMBL1201862, “PubChem BioAssay data set” (2004)
